Assay results as given in patent US20250382274A1, “COMPOSITIONS AND METHODS FOR THE TREATMENT OF PARKINSON'S AND GAUCHER DISEASE” (CHILDREN'S HOSPITAL MEDICAL CENTER, priority 2024, published 2025).
Substitutions are numbered along the chain they refer to.

Tests used:
[1] = biological target: T1, GCase N370S (N370/ΔGG human mutant Gaucher fibroblasts) (Homo sapiens, UniProt P04062, N409S); assay: EC50 cell-based assay for GCase, mutant N370/ΔGG fibroblasts (GCase N370S); settings: 5 days compound treatment (0-20 μM)
T1 construct: The human mutant Gaucher fibroblasts were purchased from Coriell Institute; host or cells: human Gaucher fibroblasts N370/ΔGG
T1 sequence (P04062 40-536 N409S): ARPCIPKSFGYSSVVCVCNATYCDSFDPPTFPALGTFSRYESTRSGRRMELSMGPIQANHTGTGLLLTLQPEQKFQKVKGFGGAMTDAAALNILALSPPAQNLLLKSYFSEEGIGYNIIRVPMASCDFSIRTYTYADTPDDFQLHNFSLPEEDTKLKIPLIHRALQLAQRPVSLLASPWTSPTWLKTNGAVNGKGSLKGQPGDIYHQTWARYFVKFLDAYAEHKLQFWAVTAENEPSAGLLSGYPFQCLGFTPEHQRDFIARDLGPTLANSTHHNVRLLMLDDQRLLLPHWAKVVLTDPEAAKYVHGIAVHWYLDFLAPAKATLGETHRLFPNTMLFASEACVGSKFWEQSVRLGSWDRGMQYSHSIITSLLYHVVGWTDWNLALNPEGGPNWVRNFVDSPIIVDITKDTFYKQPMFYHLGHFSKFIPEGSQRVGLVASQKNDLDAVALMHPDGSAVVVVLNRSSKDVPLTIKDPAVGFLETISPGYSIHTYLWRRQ
Experimental: (§1) In cell assays, GCase activity measurements were carried out on harvested cell pellets on the 5th day of Compound treatment. Healthy human fibroblasts (GCase cell), mutant N370/ΔGG (GCase N370S) or L444P/L444P (GCase L444P) were incubated with the Compound (0-20 μM) for 5 days with 15% fetal bovine serum (FBS) in Dulbecco's Modified Eagle Medium (DMEM) in 100 mm culture dishes. Fresh Medium with Compound were replaced every other day. On the 5th day of Compound treatment, harvested cell pellets were lysed with 1% Na-taurocholate (Tc) and 1% Triton X-100 (Tx), and mixed with the reaction buffer which contained 0.025 mM Citric phosphate buffer (pH 5.6), 0.25% Tc/Tx and 4 mM 4-MuGlu, then incubated at 37° C. for 1 hour. EC50 represents the concentration of a Compound that produces 50% of its maximal response in the cell-based GCase activity assay.
(§2) GCase activities were determined fluorometrically with 4-MuGlu. The relative fluorescence unit (RFU) of 4-MuGlu standard curve is generated with the plate reader (M5, Molecular Devise) as 1 n mole=56500 RFU. The human mutant Gaucher fibroblasts were purchased from Coriell Institute (Camden, NJ): N370/ΔGG (Cat #: GM00852) and L444P/L444P (cat #: GM00877)

[2] = biological target: T2, GCase L444P (L444P/L444P human mutant Gaucher fibroblasts) (Homo sapiens, UniProt P04062, L483P); assay: EC50 cell-based assay for GCase, mutant L444P/L444P fibroblasts (GCase L444P); settings: 5 days compound treatment (0-20 μM)
T2 construct: The human mutant Gaucher fibroblasts were purchased from Coriell Institute; host or cells: human Gaucher fibroblasts L444P/L444P
T2 sequence (P04062 40-536 L483P): T1 sequence (P04062 40-536 N409S) with S370N, L444P
Experimental: as §1, §2

[3] = biological target: T3, GCase (purified enzyme, Velaglucerase alfa, VPRIV) (Homo sapiens, UniProt P04062); assay: GCase AC50 enzyme activity assay; assay type: biochemical; settings: pH 5.6, 4-MuGlu substrate, compounds 0-40 μM
T3 construct: purchased Shire Human Genetic Therapies, Cambridge, MA
T3 sequence (P04062 40-536): T1 sequence (P04062 40-536 N409S) with S370N
Experimental: An in vitro enzyme assay was performed through a dose response curve of Compounds (0-40 μM) with purified enzyme (Velaglucerase alfa, VPRIV®, Shire Human Genetic Therapies, Cambridge, MA) in citric phosphate [0.025 mM] buffer (pH 5.6) where 4-MuGlu [4 mM] was the substrate. Compounds were pre-incubated with the enzyme for 40 minutes at room temperature prior to substrate addition, and then incubated at 37° C. for 1 hour. AC50 represents the concentration of a Compound that produces 50% of its maximal response in the in vitro GCase activity assay.
as §2

[4] = biological target: T4, GCase in healthy human fibroblasts (Homo sapiens, UniProt P04062); assay: EC50 cell-based assay for GCase, healthy human fibroblasts (GCase cell); settings: 5 days compound treatment (0-20 μM)
T4 construct: Healthy human fibroblasts (GCase cell); endogenous in cells; host or cells: healthy human fibroblasts
T4 sequence (P04062 40-536): T1 sequence (P04062 40-536 N409S) with S370N
Experimental: as §1, §2

COc1ccc(NC(=O)c2nc3cccc(C(=O)NCC4CCCO4)c3o2)cc1 (stereo not drawn) [Compound 8, N7-((tetrahydrofuran-2-yl)methyl)-N2-(4-methoxyphenyl)benzo[d]oxazole-2,7-dicarboxamide]
< 10 µM: EC50 [1] | EC50 [2] | AC50 [3] | EC50 [4]

O=C(Nc1ccc(O)cc1)c1nc2cc(F)cc(C(=O)NCC3CCO3)c2o1 (stereo not drawn) [Compound 26, 5-fluoro-N2-(4-hydroxyphenyl)-N7-(oxetan-2-ylmethyl)benzo[d]oxazole-2,7-dicarboxamide]
< 10 µM: EC50 [1] | EC50 [2] | AC50 [3] | EC50 [4]

CN1CCC(NC(=O)C(C)(C)Oc2ccccc2C(=O)NCC2CCCO2)CC1 (stereo not drawn) [Compound 37, 2-(2-(1-methylpiperidin-4-ylcarbamoyl)propan-2-yloxy)-N-((tetrahydrofuran-2-yl)methyl)benzamide]
< 10 µM: EC50 [1] | EC50 [2] | AC50 [3] | EC50 [4]
